Data set [1] is described as follows: in vitro. To be noted: rat, gh3-tre-luc cells, AC50 (uM) modified / 1000.
Data set [2] concerns thyroid hormone receptor (endogenous TRα and TRβ). As to the kind of experiment: GH3-TRE-Ag primary qHTS, luciferase reporter, agonist mode (TOX21_TR_LUC_GH3_Agonist, aeid 803). The format is cell-based, rat.
Data set [3] concerns thyroid hormone receptor (TR). Description: Classification of TR actives across characterization assays (TR-Ag / RXR-Ag; TR model binary). To be noted: candidate chemicals in Tables 2 and 3 define actives. From the text: Active rate comparison between receptors. […]; [Kleinstreuer et al. 2017]). We first removed chemicals classified as pharmaceuticals because these sets of chemicals are biased toward drugs targeting estrogen receptors and androgen receptors. […]. For TR, we cross-referenced these same chemicals for testing against TR and used candidate chemicals in Tables 2 and 3 to define active rates.
Complete results from both GH3-TRE qHTS agonist, antagonist, and viability mode for the 8,305 compounds are provided in Excel Table S2. […]. […]. Together with some potential false negatives, these chemicals, totaling 84 in all, were screened for activity in a series of assays for confirmation in the GH3-TRE-Ag assay; specificity screening in the TRβ-UAS-bla HEK 293T and RXRα-UAS-bla HEK 293T mammalian one-hybrid assays; viability assays for the HEK293T parental cell line; and orthogonal screening in two TR:coactivator recruitment assays, TRa-coa and TRb-coa. […].

For data set [4], the system named is GH3-TRE-Luc cell line. To be noted: read-out: AC50 (uM) modified / 1000, viability, 1 nM T3 present, 24 h.
Where [5] appears, read: aeid 803 TOX21_TR_LUC_GH3_Agonist, tcpl output.

The record followed here is article PMC6792352, “Limited Chemical Structural Diversity Found to Modulate Thyroid Hormone Receptor in the Tox21 Chemical Library” (Environmental Health Perspectives, 2019).

Where two headings read alike, the source gives them in different places.

As for `N[C@@H](Cc1cc(I)c(O)c(I)c1)C(=O)O` [3,5-diiodo-L-tyrosine], the CC50 at 24 h in data set [1] was greater than 50 µM. Also, in data set [2], the “activity in GH3-TRE agonist assay” value is “completely inactive” and the max_mean is given as 0.9106 percent_activity. This compound yielded a max_med in data set [2] (aeid 803, at max_med_conc (log) -0.39794, coff 20) of 0.5533 percent_activity. The same compound showed a hitc in data set [2] (aeid 803 TOX21_TR_LUC_GH3_Agonist, modl cnst) of 0. Besides, in data set [2] (setting [5]), the resp_max is 3.287 percent_activity and the resp_min is listed as -1.703 percent_activity.
With `CC(=O)OC(C)c1ccccc1` (racemic) [(+/-)-alpha-Methylbenzyl acetate], the CC50 at 24 h in data set [1] is greater than 90 µM. In data set [3], this compound came in with a TR_Model_Binary_Agonist of 0 and a TR_Model_Binary_Antagonist of 0.
`O=C([O-])[C@H](O)[C@@H](O)[C@H](O)[C@H](O)CO.O=C([O-])[C@H](O)[C@@H](O)[C@H](O)[C@H](O)CO.[Ba+2]` [D-Gluconic acid, barium salt]: in data set [2] (Table S2, aeid 803, per sample), the “resp_max (maximum response value)” value is recorded as 3.109 percent_activity. The compound further yielded a hitc in data set [2] (Table S2, aeid 803, tcpl hit call) of 0. The compound also had a hitc_modified in data set [2] (Table S2, aeid 803, final hitc after manual review) of 0. The half-maximal activity concentration (AC50) in data set [2] (Table S2, aeid 803, inactive set to 1000, read-out: AC50 (uM) modified) was greater than 50 µM.
In data set [1], `CCCCCCCCCC=CCC1CC(=O)OC1=O` (stereo not drawn) [(2-Dodecenyl)succinic anhydride] yielded a CC50 at 24 h greater than 90 µM. In data set [3], this compound gave a TR_Model_Binary_Agonist of 0 and a TR_Model_Binary_Antagonist of 0.
`NC(CO)(CO)CO` [tromethamine] showed a CC50 at 24 h in data set [1] greater than 90 µM. Further, the “activity in GH3-TRE agonist assay” value in data set [2] is “completely inactive”.
As to `C[C@H](CCC(=O)O)[C@H]1CC[C@H]2[C@@H]3CC[C@@H]4C[C@H](O)CC[C@]4(C)[C@H]3CC[C@]12C` [Lithocholic acid], the CC50 at 24 h in data set [1] came out at 24.5 µM. The CC50 in data set [4] (Tox21_110001=Tox21_302791) amounted to 47.9 µM.
In data set [1], `O=C(CCCCCCC(=O)Nc1ccccc1)NO` [Suberoylanilide hydroxamic acid] displayed a CC50 at 24 h of 2.15 µM. In addition, the CC50 in data set [4] (Tox21_110001=Tox21_112605) came to 2.46 µM.
In data set [1], `Oc1c(Cl)cc(Cl)c(Cl)c1Cl` [2,3,4,6-Tetrachlorophenol] had a CC50 at 24 h of 71.8 µM. The CC50 in data set [4] (Tox21_110001=Tox21_302932) was 64.3 µM.
On to `CCCCCC(=O)O[C@]1(C(C)=O)CC[C@H]2[C@@H]3CCC4=CC(=O)CC[C@]4(C)[C@H]3CC[C@@]21C` [Hydroxyprogesterone caproate], for which the CC50 at 24 h in data set [1] came out at 17.9 µM. For the same compound, the CC50 in data set [4] (Tox21_110001=Tox21_302333) came to 26.2 µM.
With `CCCN(CCOc1c(Cl)cc(Cl)cc1Cl)C(=O)n1ccnc1` [Prochloraz], the CC50 at 24 h in data set [1] is 81.4 µM. Also, the CC50 in data set [4] (Tox21_110001=Tox21_301179) stood at 70.8 µM.
For the compound `Cc1cc(O)c2c(c1)C(=O)c1cc(O)cc(O)c1C2=O` [Emodin], in data set [1], the CC50 at 24 h stood at 29.1 µM. In data set [4] (Tox21_110001=Tox21_303218), the CC50 came out at 34.9 µM.
`N#Cc1nn(-c2c(Cl)cc(C(F)(F)F)cc2Cl)c(N)c1[S+]([O-])C(F)(F)F` (stereo not drawn) [Fipronil] had a CC50 at 24 h in data set [1] of 49.6 µM. Besides, the CC50 in data set [4] (Tox21_110001=Tox21_111300) is 36.1 µM.
Regarding `CCCCCCCCCCCCOC(=O)c1cc(O)c(O)c(O)c1` [Lauryl gallate], in data set [1], the CC50 at 24 h amounted to 2.89 µM. Moreover, the CC50 in data set [4] (Tox21_110001=Tox21_303487) stood at 3.66 µM.
In data set [1], `CCN(CCN)c1cccc(C)c1` [N-Ethyl-N-(3-methylphenyl)ethane-1,2-diamine] registered a CC50 at 24 h of 61.5 µM. In addition, the CC50 in data set [4] (Tox21_110001=Tox21_303371) was 69.9 µM.
As to `CC(C)Oc1cc(-n2nc(C(C)(C)C)oc2=O)c(Cl)cc1Cl` [Oxadiazon], the CC50 at 24 h in data set [1] came out at 50.6 µM. In addition, the CC50 in data set [4] (Tox21_110001=Tox21_300668) amounted to 74.7 µM.
`OC(c1ccc(Cl)cc1)(c1cncnc1)c1ccccc1Cl` (stereo not drawn) [Fenarimol] displayed a CC50 at 24 h in data set [1] greater than 90 µM. The CC50 in data set [4] (Tox21_110001=Tox21_300650) amounted to 82.8 µM.
In the case of `N=c1ccn2c(n1)O[C@H]1[C@H](O)[C@@H](CO)O[C@H]12` [Cyclocytidine], the CC50 at 24 h in data set [1] is 1.45 µM. The CC50 in data set [4] (Tox21_110001=Tox21_111571) came out at 1.18 µM.
With `CCC(C)(c1ccc(O)cc1)c1ccc(O)cc1` [Bisphenol B], the CC50 at 24 h in data set [1] came out at 78.3 µM. In data set [4] (Tox21_110001=Tox21_300198), the CC50 came out at 88.4 µM.
On to `Clc1ccc(C(c2ccc(Cl)cc2)C(Cl)Cl)cc1` [p,p'-DDD], for which the CC50 at 24 h in data set [1] stood at 27.9 µM. Besides, the CC50 in data set [4] (Tox21_110001=Tox21_300191) was 35.5 µM.
`CCCCCCCCCc1ccc(O)cc1` [4-Nonylphenol] displayed a CC50 at 24 h in data set [1] of 41.5 µM. Also, the CC50 in data set [4] (Tox21_110001=Tox21_303647) came to 42.8 µM.
In turn, `CCCCC/C=C/C=C/C=O` [(E,E)-2,4-Decadienal] displayed a CC50 at 24 h in data set [1] greater than 90 µM. For the same compound, the CC50 in data set [4] (Tox21_110001=Tox21_303165) turned out to be 70.3 µM.
`CC(C)(C)C(=O)C1C(=O)c2ccccc2C1=O` [Pindone] came in with a CC50 at 24 h in data set [1] of 60.9 µM. The CC50 in data set [4] (Tox21_110001=Tox21_303317) was 71.8 µM.
With `CCOc1cc(Oc2ccc(C(F)(F)F)cc2Cl)ccc1[N+](=O)[O-]` [Oxyfluorfen], in data set [1], the CC50 at 24 h came out at 79.3 µM. Further, in data set [4] (Tox21_110001=Tox21_300827), the CC50 was found to be 50 µM.
In the case of `O=S(=O)(O)c1ccc(N=Nc2c(O)ccc3cc(S(=O)(=O)O)ccc23)cc1` [FD&C Yellow 6], in data set [1], the CC50 at 24 h came to 38.5 µM. The CC50 in data set [4] (Tox21_110001=Tox21_300407) came to 65.1 µM.
